Test results: ChEMBL document CHEMBL1201862, “PubChem BioAssay data set” (2004)
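Results reflect a 48-hour exposure of cells in 96-well plates to compound at five concentrations. At the GI50, growth is halved.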 Active and inactive are the calls of the source. No stated cut-off is given here; in the data, active = GI50 up to about 1.1 µM and inactive = higher.

Experiments:
Assay in all cases: NCI anticancer screen, dose series, 48 h
SK-MEL-2 = test system: SK-MEL-2
HCT-116 = test system: HCT-116
MDA-MB-435 = test system: MDA-MB-435
PC-3 = test system: PC-3
SW-620 = test system: SW-620
SN12C = test system: SN12C
T47D = test system: T47D
OVCAR-4 = test system: OVCAR-4
Malme-3M = test system: Malme-3M
HL-60 = test system: HL-60
NCI-H23 = test system: NCI-H23
ACHN = test system: ACHN
UACC-257 = test system: UACC-257
RPMI-8226 = test system: RPMI-8226
SNB-75 = test system: SNB-75
SK-MEL-28 = test system: SK-MEL-28
UO-31 = test system: UO-31
NCI-H460 = test system: NCI-H460
SNB-19 = test system: SNB-19
EKVX = test system: EKVX
A549 = test system: A549
SK-MEL-5 = test system: SK-MEL-5
SF-268 = test system: SF-268
KM12 = test system: KM12
CAKI-1 = test system: CAKI-1
K562 = test system: K562
A498 = test system: A498
UACC-62 = test system: UACC-62
786-0 = test system: 786-0
NCI-H226 = test system: NCI-H226
COLO 205 = test system: COLO 205
IGROV-1 = test system: IGROV-1
MCF7 = test system: MCF7
Hs-578T = test system: Hs-578T
SR = test system: SR
U-251 = test system: U-251
M14 = test system: M14
RXF 393 = test system: RXF 393
LOX IMVI = test system: LOX IMVI
CCRF-CEM = test system: CCRF-CEM
MDA-MB-231 = test system: MDA-MB-231
NCI/ADR-RES = test system: NCI/ADR-RES
NCI-H522 = test system: NCI-H522
MDA-N = test system: MDA-N
BT-549 = test system: BT-549
HCT-15 = test system: HCT-15
OVCAR-5 = test system: OVCAR-5
HT-29 = test system: HT-29
MOLT-4 = test system: MOLT-4
HOP-92 = test system: HOP-92
OVCAR-8 = test system: OVCAR-8
SF-539 = test system: SF-539
SK-OV-3 = test system: SK-OV-3
SF-295 = test system: SF-295
DU-145 = test system: DU-145
HOP-62 = test system: HOP-62
OVCAR-3 = test system: OVCAR-3
TK-10 = test system: TK-10
HCC 2998 = test system: HCC 2998

Measured: GI50

CC(C)(C)c1cc(C(C)(C)C)c(SSc2c(C(C)(C)C)cc(C(C)(C)C)c(O)c2O)c(O)c1O
inactive: SK-MEL-2 14.4 µM | HCT-116 10.9 µM | MDA-MB-435 4.3 µM | PC-3 12.4 µM | SW-620 4.99 µM | SN12C 10.9 µM | T47D 4.32 µM | OVCAR-4 3.55 µM | Malme-3M 21.4 µM | HL-60 3.46 µM | NCI-H23 10.3 µM | ACHN 11.4 µM | UACC-257 9.95 µM | RPMI-8226 9.29 µM | SNB-75 14.8 µM | SK-MEL-28 16.3 µM | UO-31 6.18 µM | NCI-H460 3.89 µM | SNB-19 11.7 µM | EKVX 16.4 µM | A549 6.75 µM | SK-MEL-5 11.7 µM | SF-268 10.1 µM | KM12 12.6 µM | CAKI-1 11.5 µM | K562 6.43 µM | A498 14 µM | UACC-62 5.7 µM | 786-0 6.4 µM | NCI-H226 15 µM | COLO 205 11.5 µM | IGROV-1 12 µM | MCF7 10.3 µM | Hs-578T 10.5 µM | SR 2.94 µM | U-251 10.5 µM | M14 11.7 µM | RXF 393 16.4 µM | LOX IMVI 9.64 µM | CCRF-CEM 2.5 µM | MDA-MB-231 14.7 µM | NCI/ADR-RES 19.1 µM | NCI-H522 3.92 µM | MDA-N 10.4 µM | BT-549 13.8 µM | OVCAR-5 15.8 µM | HT-29 13.2 µM | MOLT-4 2.67 µM | HOP-92 17.7 µM | OVCAR-8 12.3 µM
6.19 µM: HCT-15

[O-][n+]1c2cccc(O)c2[n+]([O-])c2cccc(O)c21
inactive: HCT-116 21.4 µM | MDA-MB-435 > 100 µM | PC-3 53.1 µM | SW-620 47.9 µM | SF-539 32.7 µM | SK-OV-3 45.7 µM | T47D 40.2 µM | OVCAR-4 42.7 µM | HL-60 47.9 µM | NCI-H23 94.6 µM | ACHN 14.2 µM | SF-295 57.9 µM | UACC-257 37.9 µM | RPMI-8226 18.6 µM | SNB-75 > 100 µM | UO-31 > 100 µM | NCI-H460 30.1 µM | SNB-19 92 µM | EKVX 23.8 µM | A549 84.7 µM | SK-MEL-5 53.5 µM | SF-268 31.8 µM | KM12 37.5 µM | CAKI-1 25.1 µM | K562 39.2 µM | DU-145 > 100 µM | A498 > 100 µM | 786-0 30.2 µM | COLO 205 52.8 µM | IGROV-1 6.53 µM | MCF7 20.7 µM | Hs-578T > 100 µM | U-251 43.3 µM | M14 > 100 µM | RXF 393 60.4 µM | HOP-62 27.9 µM | OVCAR-3 29.2 µM | LOX IMVI 56.8 µM | CCRF-CEM 5.56 µM | NCI/ADR-RES 70.8 µM | NCI-H522 20.4 µM | TK-10 23.4 µM | MDA-N > 100 µM | BT-549 46 µM | OVCAR-5 > 100 µM | HT-29 > 100 µM | MOLT-4 3.99 µM | HOP-92 22.7 µM | OVCAR-8 25.9 µM
46.6 µM: HCT-15

O=C(O)c1ccc(Nc2nc3ccccc3nc2-c2cccs2)cc1
68.7 µM: HCT-15
inactive: HCT-116 94 µM | MDA-MB-435 > 100 µM | HCC 2998 > 100 µM | PC-3 > 100 µM | SW-620 > 100 µM | SF-539 > 100 µM | SK-OV-3 > 100 µM | SN12C > 100 µM | T47D 47 µM | OVCAR-4 41.8 µM | Malme-3M 60.3 µM | HL-60 > 100 µM | NCI-H23 > 100 µM | ACHN 98.9 µM | SF-295 > 100 µM | UACC-257 > 100 µM | RPMI-8226 68.1 µM | SNB-75 66.1 µM | SK-MEL-28 > 100 µM | UO-31 63.5 µM | NCI-H460 71 µM | EKVX 92.5 µM | A549 44.2 µM | SK-MEL-5 > 100 µM | SF-268 82.2 µM | KM12 64.1 µM | CAKI-1 63.5 µM | K562 45.5 µM | DU-145 > 100 µM | A498 47 µM | UACC-62 65.5 µM | 786-0 71.9 µM | NCI-H226 > 100 µM | COLO 205 > 100 µM | IGROV-1 73.5 µM | Hs-578T 50.7 µM | SR 65.9 µM | U-251 95.9 µM | RXF 393 39.4 µM | HOP-62 > 100 µM | OVCAR-3 > 100 µM | LOX IMVI 35.1 µM | CCRF-CEM > 100 µM | MDA-MB-231 > 100 µM | NCI/ADR-RES 39.1 µM | NCI-H522 91.4 µM | TK-10 > 100 µM | MDA-N > 100 µM | BT-549 32.1 µM | OVCAR-5 > 100 µM | HT-29 66.4 µM | MOLT-4 > 100 µM | HOP-92 68.2 µM | OVCAR-8 54.2 µM
